This note sets out measurements from ChEMBL document CHEMBL1201862, “PubChem BioAssay data set” (2004).

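Tested at 5 concentrations; 48 h exposure; 96-well plates; endpoints linearly interpolated, else capped at highest concentration. GI50 = concentration required for 50% inhibition of growth.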 Activity calls are given as the source filed them. Rule as the data show it: active = GI50 up to about 1.1 µM and inactive = higher.

Some test systems named below: A549; K562; SF-295; SK-OV-3; SF-539; SF-268; HT-29; NCI-H522; HCT-116; UACC-257; HCT-15; OVCAR-4; 786-0; ACHN; HOP-92; SR.
Holding throughout (assay): NCI tumour cell line growth inhibition, 48 h

Regarding `C[Si](C)(C)C1(Sc2ccccc2)SCCCS1`, the GI50 with A549 is 31.9 µM (inactive); with K562 it was 31.1 µM (inactive); in the experiment on SF-295, 54.3 µM (inactive); in the experiment with SK-OV-3, > 100 µM (inactive); in the experiment with SF-539, 24.9 µM (inactive); in the experiment with SF-268 it was 31.8 µM (inactive). Moreover, the GI50 was 38.5 µM (inactive) with HT-29; 17.9 µM (inactive) in the experiment on NCI-H522; 21.3 µM (inactive) with HCT-116; 38.7 µM (inactive) in the experiment with UACC-257; 27.2 µM with HCT-15; 57.1 µM (inactive) with OVCAR-4. In addition, the GI50 in the experiment with 786-0 was 46.5 µM (inactive); in the experiment on ACHN, 35.9 µM (inactive); in the experiment with HOP-92 it was 32.8 µM (inactive).
Turning to `COC1CC(OS(=O)(=O)c2ccc(C)cc2)C(OS(=O)(=O)c2ccc(C)cc2)C(COS(=O)(=O)c2ccc(C)cc2)O1` (configuration not stated), the GI50 in the experiment on A549 was 5.9 µM (inactive); in the experiment on SR, 6.12 µM (inactive); with K562, 23.9 µM (inactive); with SF-295, 1.55 µM (inactive); in the experiment with SK-OV-3, 3.01 µM (inactive); with SF-539, 1.88 µM (inactive). The GI50 with SF-268 is 1.02 µM (active); in the experiment with HT-29 it was 3.31 µM (inactive); with NCI-H522 it was 3.8 µM (inactive); in the experiment on HCT-116 it was 14.5 µM (inactive); in the experiment with UACC-257, 8.89 µM (inactive); in the experiment on HCT-15, 5.35 µM. In addition, the figures for the GI50 with OVCAR-4, in the experiment with 786-0 and in the experiment with ACHN were 0.336 µM (active), 1.6 µM (inactive) and 2.9 µM (inactive), respectively.
For `CC(=O)NC(CCCN(Cc1ccccc1)C(=O)N(C)N=O)C(=O)NCc1ccccc1` (configuration not stated), the GI50 was > 100 µM (inactive) in the experiment on A549; > 100 µM (inactive) with K562; > 100 µM (inactive) in the experiment on SF-295; > 100 µM (inactive) in the experiment with SK-OV-3; > 100 µM (inactive) in the experiment on SF-539; 95.3 µM (inactive) in the experiment on SF-268. In addition, the GI50 in the experiment on HT-29 is > 100 µM (inactive); in the experiment on NCI-H522, 37.1 µM (inactive); in the experiment with HCT-116, > 100 µM (inactive); in the experiment with UACC-257 it was > 100 µM (inactive); with HCT-15, more than 100 µM; with OVCAR-4, > 100 µM (inactive). The GI50 with 786-0, in the experiment with ACHN and in the experiment with HOP-92 was > 100 µM (inactive) each time.
On to `O=C(Cc1nc2ccccc2o1)C(=O)Nc1ccccc1C(F)(F)F`, for which the GI50 in the experiment on A549, in the experiment with K562, with SF-295, in the experiment with SK-OV-3, in the experiment on SF-539 and in the experiment with SF-268 was > 100 µM (inactive) each time. For the same compound, the GI50 with HT-29 is > 100 µM (inactive); with NCI-H522, > 100 µM (inactive); with HCT-116 it was > 100 µM (inactive); in the experiment with UACC-257, > 100 µM (inactive); with HCT-15, more than 100 µM; in the experiment on OVCAR-4, > 100 µM (inactive). In addition, the GI50 in the experiment on 786-0, with ACHN and in the experiment on HOP-92 was > 100 µM (inactive) in each case.
In the case of `Cc1ccc(C[P+]2(c3ccccc3)CCCCC2)cc1.[O-][Cl+3]([O-])([O-])[O-]`, the GI50 in the experiment on A549 was 73.5 µM (inactive); in the experiment on SR, 23.1 µM (inactive); in the experiment with K562 it was 34.8 µM (inactive); in the experiment on SF-295, 44.2 µM (inactive); in the experiment with SK-OV-3, 60.8 µM (inactive); in the experiment on SF-539 it was 25 µM (inactive). Besides, the GI50 in the experiment with HT-29 was 21.1 µM (inactive); in the experiment on NCI-H522 it was 16.1 µM (inactive); in the experiment on HCT-116, 1.33 µM (inactive); with UACC-257, 6.28 µM (inactive); in the experiment on HCT-15, 51.6 µM; in the experiment on OVCAR-4, 41.4 µM (inactive). Besides, the GI50 is 47.4 µM (inactive) in the experiment on 786-0 and 81.7 µM (inactive) in the experiment with ACHN.
On to `CC(=O)Oc1c(C)n(CCCl)ccc1=O`, for which the GI50 in the experiment on A549, in the experiment with SR, in the experiment with K562, in the experiment on SF-295, with SK-OV-3 and with SF-268 was > 100 µM (inactive) throughout. Further, the GI50 with HT-29 is > 100 µM (inactive); in the experiment with NCI-H522, > 100 µM (inactive); in the experiment with HCT-116, > 100 µM (inactive); in the experiment on UACC-257, > 100 µM (inactive); with HCT-15, 34.8 µM; in the experiment with OVCAR-4, > 100 µM (inactive). Further, the GI50 in the experiment on 786-0 is > 100 µM (inactive); with ACHN, 69.3 µM (inactive).
As for `Cc1cccc(C(C)(C)C)c1NC(=O)CC1Sc2ccccc2NC1=O` (configuration not stated), the GI50 is > 100 µM (inactive) in the experiment on A549; 33 µM (inactive) with K562; > 100 µM (inactive) in the experiment on SF-295; > 100 µM (inactive) in the experiment on SK-OV-3; > 100 µM (inactive) in the experiment on SF-539; 87.9 µM (inactive) in the experiment with SF-268. Moreover, the GI50 was 43 µM (inactive) in the experiment with HT-29; > 100 µM (inactive) in the experiment with NCI-H522; 22.4 µM (inactive) with HCT-116; 36.2 µM (inactive) in the experiment with UACC-257; > 100 µM (inactive) in the experiment on OVCAR-4; 46 µM (inactive) with 786-0. Also, the GI50 with ACHN is 57.5 µM (inactive); with HOP-92 it was 3.8 µM (inactive).
As for `COC(=O)C(C#CCCCCC#CC(NC(=O)OCc1ccccc1)(C(=O)OC)C(F)(F)F)(NC(=O)OCc1ccccc1)C(F)(F)F` (configuration not stated), the GI50 in the experiment with A549 was 73.6 µM (inactive); in the experiment on K562, 8.38 µM (inactive); in the experiment with SF-295 it was > 100 µM (inactive); in the experiment on SK-OV-3 it was > 100 µM (inactive); in the experiment with SF-539, > 100 µM (inactive); with SF-268, > 100 µM (inactive). For the same compound, the GI50 in the experiment on HT-29 is > 100 µM (inactive); in the experiment with NCI-H522 it was > 100 µM (inactive); in the experiment on HCT-116, 97.9 µM (inactive); in the experiment with UACC-257 it was > 100 µM (inactive); in the experiment on HCT-15, more than 100 µM; with OVCAR-4, > 100 µM (inactive). In addition, the GI50 in the experiment with 786-0, with ACHN and in the experiment on HOP-92 was > 100 µM (inactive) in each case.
For `COc1ccc2ccc([Se]c3ccc4ccc(OC)cc4c3)cc2c1`, the GI50 in the experiment with A549 is > 100 µM (inactive); in the experiment with K562, > 100 µM (inactive); with SF-295, 74.6 µM (inactive); in the experiment with SK-OV-3 it was > 100 µM (inactive); with SF-539 it was > 100 µM (inactive); in the experiment on SF-268, 61.1 µM (inactive). The GI50 in the experiment on HT-29 is 50.1 µM (inactive); with NCI-H522, 84.5 µM (inactive); with HCT-116, 58.1 µM (inactive); in the experiment on UACC-257, > 100 µM (inactive); with HCT-15, more than 100 µM; in the experiment on OVCAR-4, 20.6 µM (inactive). The GI50 was 49.7 µM (inactive) in the experiment on 786-0, 29.2 µM (inactive) in the experiment with ACHN and > 100 µM (inactive) with HOP-92.
For the compound `CC#C[C@@]1(O)CCCCC1O` (some centres not stated), the GI50 with A549, with K562, in the experiment with SF-295, in the experiment with SK-OV-3, with SF-539 and in the experiment with SF-268 was > 100 µM (inactive) each time. In addition, the GI50 in the experiment on HT-29 is > 100 µM (inactive); with NCI-H522, > 100 µM (inactive); with HCT-116 it was > 100 µM (inactive); with UACC-257, > 100 µM (inactive); in the experiment with HCT-15, more than 100 µM; in the experiment with OVCAR-4 it was > 100 µM (inactive). Further, the GI50 in the experiment with 786-0, in the experiment on ACHN and in the experiment with HOP-92 was > 100 µM (inactive) throughout.
